In patent publication US20250034136A1 (Nimbus Wadjet, Inc., priority 2023, published 2025):

Tests used:
[1] = biological target: WRN (BV08), human Werner helicase (Uniprot Q14191, amino acids 517-1235 with L1074F point mutation) (Homo sapiens (Human), UniProt Q14191, L1074F); test: WRN (BV08) ADP-Glo assay; assay type: biochemical; details: class symbols A-E, read-out: ADP-Glo_hWRN_IC50
[2] = tested on: p21 induction in HCT116 cells; test: p21 induction in HCT116 cells; assay type: cell-based; details: Homo sapiens, HCT-116, 24 h, HCT116 cells, 24 h compound incubation; read-out: P21_EC50
Outline: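 HCT116 cells, 2,000/well, treated 24 h at 37 °C with 11-point compound dilutions in duplicate. Fixed, then immunostained for p21 and GAPDH and read by near-IR imaging at 800/700 nm. Normalized to DMSO (low) and reference WRN inhibitor (high) controls; EC50 from non-linear regression.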

WRN (BV08), human Werner helicase (Uniprot Q14191, amino acids 517-1235 with L1074F point mutation), sequence (Q14191 other isoform, or with tags, fused parts or gaps L1074F (already in the parent)): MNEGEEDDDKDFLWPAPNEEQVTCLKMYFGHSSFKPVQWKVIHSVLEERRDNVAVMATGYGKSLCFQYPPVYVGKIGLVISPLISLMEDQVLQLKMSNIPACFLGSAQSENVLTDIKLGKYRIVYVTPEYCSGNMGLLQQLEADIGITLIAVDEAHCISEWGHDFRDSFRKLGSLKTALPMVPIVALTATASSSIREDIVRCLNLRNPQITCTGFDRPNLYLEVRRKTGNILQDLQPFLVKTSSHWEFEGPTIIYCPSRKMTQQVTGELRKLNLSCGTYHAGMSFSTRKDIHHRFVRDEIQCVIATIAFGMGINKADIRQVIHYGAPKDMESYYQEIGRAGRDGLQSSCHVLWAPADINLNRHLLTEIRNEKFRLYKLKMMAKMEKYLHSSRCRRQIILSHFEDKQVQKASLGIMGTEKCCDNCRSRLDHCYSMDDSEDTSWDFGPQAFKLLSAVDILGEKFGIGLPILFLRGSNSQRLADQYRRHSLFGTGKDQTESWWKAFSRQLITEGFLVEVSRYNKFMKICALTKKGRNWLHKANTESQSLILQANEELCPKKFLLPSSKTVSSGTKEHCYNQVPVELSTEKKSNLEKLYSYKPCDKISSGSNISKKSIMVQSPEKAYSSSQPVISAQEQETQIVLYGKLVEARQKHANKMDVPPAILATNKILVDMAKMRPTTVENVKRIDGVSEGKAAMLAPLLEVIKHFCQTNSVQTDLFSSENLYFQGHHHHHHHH

| SMILES | IC50 [1] [nM] | EC50 [2] [nM] |
| --- | --- | --- |
| CCc1c(N2CCN(C(=O)c3ncnc(C)c3O)CC2)c(=O)c2nc(N3CC4(CC4)C3)cnc2n1CC(=O)Nc1ccc(C(F)(F)F)cc1Cl [I-162, 2-(2-{5-azaspiro[2.3]hexan-5-yl}-6-ethyl-7-[4-(5-hydroxy-6-methylpyrimidine-4-carbonyl)piperazin-1-yl]-8-oxo-5H,8H-pyrido[2,3-b]pyrazin-5-yl)-N-[2-chloro-4-(trifluoromethyl)phenyl]acetamide] | 5 to 50 | 500 to 2000 |
| CCc1c(N2CCN(C(=O)c3ncnc(C)c3O)CC2)c(=O)c2nc(N3CCC4(COC4)C3)cnc2n1CC(=O)Nc1ccc(C(F)(F)F)cc1Cl [I-163, N-[2-chloro-4-(trifluoromethyl)phenyl]-2-{6-ethyl-7-[4-(5-hydroxy-6-methylpyrimidine-4-carbonyl)piperazin-1-yl]-2-{2-oxa-6-azaspiro[3.4]octan-6-yl}-8-oxo-5H,8H-pyrido[2,3-b]pyrazin-5-yl}acetamide] | 5 to 50 | > 5000 |
| CCc1c(N2CCN(C(=O)c3ncnc(C)c3O)CC2)c(=O)c2nc(N3CC(F)C3)cnc2n1CC(=O)Nc1ccc(C(F)(F)F)cc1Cl [I-164, N-[2-chloro-4-(trifluoromethyl)phenyl]-2-[6-ethyl-2-(3-fluoroazetidin-1-yl)-7-[4-(5-hydroxy-6-methylpyrimidine-4-carbonyl)piperazin-1-yl]-8-oxo-5H,8H-pyrido[2,3-b]pyrazin-5-yl]acetamide] | 5 to 50 | 2000 to 5000 |
| CCc1c(N2CCN(C(=O)c3ncnc(C)c3O)CC2)c(=O)c2nc(NC3CC3)cnc2n1CC(=O)Nc1ccc(C(F)(F)F)cc1Cl [I-165, N-[2-chloro-4-(trifluoromethyl)phenyl]-2-[2-(cyclopropylamino)-6-ethyl-7-[4-(5-hydroxy-6-methylpyrimidine-4-carbonyl)piperazin-1-yl]-8-oxo-5H,8H-pyrido[2,3-b]pyrazin-5-yl]acetamide] | 5 to 50 | 500 to 2000 |
| CCc1c(N2CCN(C(=O)c3ncnc(C)c3O)CC2)c(=O)c2nc(C=C3CCCC3)cnc2n1CC(=O)Nc1ccc(C(F)(F)F)cc1Cl [I-166, N-[2-chloro-4-(trifluoromethyl)phenyl]-2-[2-(cyclopentylidenemethyl)-6-ethyl-7-[4-(5-hydroxy-6-methylpyrimidine-4-carbonyl)piperazin-1-yl]-8-oxo-5H,8H-pyrido[2,3-b]pyrazin-5-yl]acetamide] | ≤ 5 | 500 to 2000 |
| CCc1c(N2CCN(C(=O)c3ncnc(C)c3O)CC2)c(=O)c2nc(N(C)CC(F)F)cnc2n1CC(=O)Nc1ccc(C(F)(F)F)cc1Cl [I-167, N-[2-chloro-4-(trifluoromethyl)phenyl]-2-{2-[(2,2-difluoroethyl)(methyl)amino]-6-ethyl-7-[4-(5-hydroxy-6-methylpyrimidine-4-carbonyl)piperazin-1-yl]-8-oxo-5H,8H-pyrido[2,3-b]pyrazin-5-yl}acetamide] | 5 to 50 | 2000 to 5000 |
| CCc1c(N2CC3COCC(C2)N3C(=O)c2ncnc(C)c2O)c(=O)c2nc(N(C)C)cnc2n1CC(=O)Nc1ccc(C(F)(F)F)cc1Cl [I-168, N-[2-chloro-4-(trifluoromethyl)phenyl]-2-[2-(dimethylamino)-6-ethyl-7-[9-(5-hydroxy-6-methylpyrimidine-4-carbonyl)-3-oxa-7,9-diazabicyclo[3.3.1]nonan-7-yl]-8-oxo-5H,8H-pyrido[2,3-b]pyrazin-5-yl]acetamide] | 100 to 500 | > 5000 |
| CCc1c(N2CCN(C(=O)c3ncnc(C)c3O)CC2)c(=O)c2nc(N3CCC34CCC4)cnc2n1CC(=O)Nc1ccc(C(F)(F)F)cc1Cl [I-170, 2-(2-{1-azaspiro[3.3]heptan-1-yl}-6-ethyl-7-[4-(5-hydroxy-6-methylpyrimidine-4-carbonyl)piperazin-1-yl]-8-oxo-5H,8H-pyrido[2,3-b]pyrazin-5-yl)-N-[2-chloro-4-(trifluoromethyl)phenyl]acetamide] | 5 to 50 | < 500 |
| CCc1c(N2CCN(C(=O)c3ncnc(C)c3O)CC2)c(=O)c2nc(C(C)(C)F)cnc2n1CC(=O)Nc1ccc(C(F)(F)F)cc1Cl [I-174, N-[2-chloro-4-(trifluoromethyl)phenyl]-2-[6-ethyl-2-(2-fluoropropan-2-yl)-7-[4-(5-hydroxy-6-methylpyrimidine-4-carbonyl)piperazin-1-yl]-8-oxo-5H,8H-pyrido[2,3-b]pyrazin-5-yl]acetamide] | 5 to 50 | 2000 to 5000 |
| CCc1c(N2CCN(C(=O)c3ncnc(C)c3O)CC2)c(=O)c2nc(N(C)C(C)C)cnc2n1CC(=O)Nc1ccc(C(F)(F)F)cc1Cl [I-175, N-[2-chloro-4-(trifluoromethyl)phenyl]-2-{6-ethyl-7-[4-(5-hydroxy-6-methylpyrimidine-4-carbonyl)piperazin-1-yl]-2-[methyl(propan-2-yl)amino]-8-oxo-5H,8H-pyrido[2,3-b]pyrazin-5-yl}acetamide] | 5 to 50 | 2000 to 5000 |
| CCc1c(N2CCN(C(=O)c3ncnc(C)c3O)C3(CC3)C2)c(=O)c2nc(N(C)C)cnc2n1CC(=O)Nc1ccc(C(F)(F)F)cc1Cl [I-176, N-[2-chloro-4-(trifluoromethyl)phenyl]-2-[2-(dimethylamino)-6-ethyl-7-[4-(5-hydroxy-6-methylpyrimidine-4-carbonyl)-4,7-diazaspiro[2.5]octan-7-yl]-8-oxo-5H,8H-pyrido[2,3-b]pyrazin-5-yl]acetamide] | 50 to 100 | > 5000 |
| CCc1c(N2CCN(C(=O)c3ncnc(C)c3O)CC2)c(=O)c2nc(N3CCC(F)(F)C3)cnc2n1CC(=O)Nc1ccc(C(F)(F)F)cc1Cl [I-177, N-[2-chloro-4-(trifluoromethyl)phenyl]-2-[2-(3,3-difluoropyrrolidin-1-yl)-6-ethyl-7-[4-(5-hydroxy-6-methylpyrimidine-4-carbonyl)piperazin-1-yl]-8-oxo-5H,8H-pyrido[2,3-b]pyrazin-5-yl]acetamide] | 5 to 50 | > 5000 |
| CCc1c(N2CCN(C(=O)c3ncnc(C)c3O)C(CO)C2)c(=O)c2nc(N(C)C)cnc2n1CC(=O)Nc1ccc(C(F)(F)F)cc1Cl (centres unmarked) [I-178, N-[2-chloro-4-(trifluoromethyl)phenyl]-2-[2-(dimethylamino)-6-ethyl-7-[4-(5-hydroxy-6-methylpyrimidine-4-carbonyl)-3-(hydroxymethyl)piperazin-1-yl]-8-oxo-5H,8H-pyrido[2,3-b]pyrazin-5-yl]acetamide] | 5 to 50 | > 5000 |
| CCc1c(N2CCN(C(=O)c3ncnc(C)c3O)CC2)c(=O)c2nc(N(C3CC3)C3CC3)cnc2n1CC(=O)Nc1ccc(C(F)(F)F)cc1Cl [I-179, N-[2-chloro-4-(trifluoromethyl)phenyl]-2-[2-(dicyclopropylamino)-6-ethyl-7-[4-(5-hydroxy-6-methylpyrimidine-4-carbonyl)piperazin-1-yl]-8-oxo-5H,8H-pyrido[2,3-b]pyrazin-5-yl]acetamide] | 5 to 50 | 2000 to 5000 |
| CCc1c(N2CCN(C(=O)c3ncnc(C)c3O)CC2)c(=O)c2nc(C=C3CC(C)(O)C3)cnc2n1CC(=O)Nc1ccc(C(F)(F)F)cc1Cl (centres unmarked) [I-180, N-[2-chloro-4-(trifluoromethyl)phenyl]-2-{6-ethyl-2-[(3-hydroxy-3-methylcyclobutylidene)methyl]-7-[4-(5-hydroxy-6-methylpyrimidine-4-carbonyl)piperazin-1-yl]-8-oxo-5H,8H-pyrido[2,3-b]pyrazin-5-yl}acetamide] | 5 to 50 | 500 to 2000 |
| CCc1c(N2CCN(C(=O)c3ncnc(C)c3O)[C@H]3CC[C@@H]32)c(=O)c2nc(OC3CCC3)cnc2n1CC(=O)Nc1ccc(C(F)(F)F)cc1Cl [I-181, N-[2-chloro-4-(trifluoromethyl)phenyl]-2-{2-cyclobutoxy-6-ethyl-7-[(1S,6S)-5-(5-hydroxy-6-methylpyrimidine-4-carbonyl)-2,5-diazabicyclo[4.2.0]octan-2-yl]-8-oxo-5H,8H-pyrido[2,3-b]pyrazin-5-yl}acetamide] | 5 to 50 | < 500 |
| CCc1c(N2CCN(C(=O)c3ncnc(C)c3O)[C@H]3CC[C@@H]32)c(=O)c2nc(OC)cnc2n1CC(=O)Nc1ccc(C(F)(F)F)cc1Cl [I-182, N-[2-chloro-4-(trifluoromethyl)phenyl]-2-{6-ethyl-7-[(1S,6S)-5-(5-hydroxy-6-methylpyrimidine-4-carbonyl)-2,5-diazabicyclo[4.2.0]octan-2-yl]-2-methoxy-8-oxo-5H,8H-pyrido[2,3-b]pyrazin-5-yl} acetamide] | ≤ 5 | < 500 |
| CCc1c(N2CCN(C(=O)c3c(O)cnnc3OC)[C@H]3CC[C@@H]32)c(=O)c2nc(N(C)C)cnc2n1CC(=O)Nc1ccc(C(F)(F)F)cc1Cl [I-183, N-[2-chloro-4-(trifluoromethyl)phenyl]-2-[2-(dimethylamino)-6-ethyl-7-[(1S,6S)-5-(5-hydroxy-3-methoxypyridazine-4-carbonyl)-2,5-diazabicyclo[4.2.0]octan-2-yl]-8-oxo-5H,8H-pyrido[2,3-b]pyrazin-5-yl]acetamide] | 5 to 50 | > 5000 |
| CCc1c(N2CCN(C(=O)c3cnn(C)c3)[C@H]3CC[C@@H]32)c(=O)c2nc(N(C)C)cnc2n1CC(=O)Nc1ccc(C(F)(F)F)cc1Cl [I-184, N-[2-chloro-4-(trifluoromethyl)phenyl]-2-[2-(dimethylamino)-6-ethyl-7-[(1S,6S)-5-(1-methyl-1H-pyrazole-4-carbonyl)-2,5-diazabicyclo[4.2.0]octan-2-yl]-8-oxo-5H,8H-pyrido[2,3-b]pyrazin-5-yl]acetamide] | 5 to 50 | 2000 to 5000 |
